Values after ≈ are worked out from the molar mass of the structure shown. One block for each compound: values may come before it.
Legend:
Test in all cases: ≥ marks a high value that may be exact or a test limit, other limits are often not marked, values filed in µg/mL are converted to µM
Candida glabrata 090902 = system: Candida glabrata 090902
[1] = system: Enterococcus faecalis 981
[2] = system: Psychrobacter faecalis X29
[3] = system: Nocardia asteroides 201118
[4] = system: Staphylococcus aureus ATCC 25923
[5] = system: Micrococcus luteus CCM 144
Escherichia coli B = system: Escherichia coli B
Staphylococcus aureus 1 = system: Staphylococcus aureus 1
Bacillus subtilis 168 = system: Bacillus subtilis 168
Staphylococcus aureus = system: Staphylococcus aureus
[6] = system: Staphylococcus aureus ATCC 43300
[7] = system: Candida albicans F7-39/IDE99
[8] = system: Staphylococcus epidermidis
[9] = system: Pseudomonas aeruginosa ATCC 27853
Pseudomonas aeruginosa = system: Pseudomonas aeruginosa
[10] = system: Staphylococcus aureus ATCC 33591
[11] = system: Escherichia coli ATCC 25922
[12] = system: Staphylococcus aureus ATCC 29213
[13] = system: Klebsiella pneumoniae ATCC 700603
[14] = system: Staphylococcus aureus ATCC 700699
[15] = system: Salmonella enterica subsp. enterica serovar Typhimurium LT2
[16] = system: Cronobacter muytjensii ATCC 51329
[17] = system: Staphylococcus aureus Newman
[18] = system: Cronobacter sakazakii ATCC BAA-894
[19] = system: Staphylococcus aureus RN4220
[20] = system: Staphylococcus aureus NCTC 8325-4
[21] = system: Cronobacter sakazakii DPC 6440
[22] = system: Pseudomonas fluorescens NCIMB 9046
[23] = system: Cronobacter sakazakii DSM 4485
[24] = system: Staphylococcus aureus SA113
[25] = system: Klebsiella pneumoniae NCIMB 13218
[26] = system: Staphylococcus aureus RF122
[27] = system: Escherichia coli NCIMB 11843
[28] = system: Candida albicans ATCC 64550
[29] = system: Bacillus subtilis ATCC 23857
[30] = system: Escherichia coli ATCC 35218
[31] = system: Bacillus cereus ATCC 11778
[32] = system: Pseudomonas aeruginosa ATCC 9027
[33] = system: Pseudomonas aeruginosa PAO1

Compound: CC[C@H](C)[C@@H]1NC(=O)[C@H](CCC(=O)O)NC(=O)[C@@H](NC(=O)[C@@H](NC(=O)[C@@H](NC(=O)[C@H](CCCCN)NC(=O)[C@@H]2CCCN2C(=O)[C@H](CC(C)C)NC(=O)[C@H](Cc2ccccc2)NC(=O)[C@H](CC(C)C)NC(=O)[C@@H]2CCCN2C(=O)[C@H](CC(C)C)NC(=O)[C@@H](N)Cc2ccccc2)[C@@H](C)CC)[C@@H](C)CC)CSSC[C@@H](C(=O)O)NC(=O)[C@H](CCCCN)NC(=O)[C@H](CCCCN)NC(=O)[C@H]([C@@H](C)O)NC1=O [FLPLFLPKIICEITKKC]
- MIC (Candida glabrata 090902): 25 µM (≈ 50.1 µg/mL)
- MIC [1]: ≥ 50 µM
- MIC [2]: ≥ 50 µM
- MIC [3]: 25 µM (≈ 50.1 µg/mL)
- MIC [4]: 100 µM (≈ 200 µg/mL)

Compound: CC[C@H](C)[C@H](NC(=O)CN)C(=O)N[C@@H](CC(C)C)C(=O)N[C@@H](CCCCN)C(=O)N[C@@H](CO)C(=O)N[C@@H](CC(C)C)C(=O)N[C@@H](CC(C)C)C(=O)N[C@@H](CCCCN)C(=O)N[C@@H](CCCCN)C(=O)N[C@@H](CC(C)C)C(=O)N[C@@H](CCCCN)C(=O)N[C@@H](CCCCN)C(=O)N[C@H](C(=O)N[C@H](C(=O)N[C@@H](C)C(=O)N[C@@H](CCCCN)C(N)=O)[C@@H](C)CC)[C@@H](C)CC [GILKSLLKKLKKIIAK]
- MIC [5]: 3 µM (≈ 5.38 µg/mL)
- MIC (Escherichia coli B): 10 µM (≈ 17.9 µg/mL)
- MIC (Staphylococcus aureus 1): 4.3 µM (≈ 7.71 µg/mL)
- MIC (Bacillus subtilis 168): 7 µM (≈ 12.6 µg/mL)
- MIC (Staphylococcus aureus): 10 µM (≈ 17.9 µg/mL)
- MIC [6]: 17 µM (≈ 30.5 µg/mL)
- MIC [7]: 24 µM (≈ 43 µg/mL)
- MIC [8]: 2.2 µM (≈ 3.95 µg/mL)
- MIC [9]: 5 µM (≈ 8.97 µg/mL)
- MIC (Pseudomonas aeruginosa): 8.9 µM (≈ 16 µg/mL)

Compound: CC[C@H](C)[C@H](NC(=O)CN)C(=O)N[C@@H](CCSC)C(=O)N[C@@H](CO)C(=O)N[C@@H](CO)C(=O)N[C@@H](CC(C)C)C(=O)N[C@@H](CCSC)C(=O)N[C@@H](CCCCN)C(=O)N[C@@H](CCCCN)C(=O)N[C@@H](CC(C)C)C(=O)N[C@@H](CCCCN)C(=O)N[C@@H](CCCCN)C(=O)N[C@H](C(=O)N[C@H](C(=O)N[C@@H](CCCCN)C(=O)N[C@@H](CCCCN)C(N)=O)[C@@H](C)CC)[C@@H](C)CC [GIMSSLMKKLKKIIKK]
- MIC [5]: 3 µM (≈ 5.54 µg/mL)
- MIC (Escherichia coli B): 22 µM (≈ 40.6 µg/mL)
- MIC (Staphylococcus aureus 1): 18 µM (≈ 33.2 µg/mL)
- MIC (Bacillus subtilis 168): 7 µM (≈ 12.9 µg/mL)
- MIC (Staphylococcus aureus): 65 µM (≈ 120 µg/mL)
- MIC [6]: 54 µM (≈ 99.7 µg/mL)
- MIC [7]: 6.3 µM (≈ 11.6 µg/mL)
- MIC [8]: 1.7 µM (≈ 3.14 µg/mL)
- MIC [9]: 7.1 µM (≈ 13.1 µg/mL)
- MIC (Pseudomonas aeruginosa): 9.9 µM (≈ 18.3 µg/mL)

Compound: CC[C@H](C)[C@H](NC(=O)[C@H](CC(=O)O)NC(=O)[C@H](CCCCN)NC(=O)[C@H](C)NC(=O)[C@H](C)NC(=O)CNC(=O)[C@H](CCCCN)NC(=O)[C@H](CC(C)C)NC(=O)[C@@H](NC(=O)[C@H](CC(=O)O)NC(=O)[C@H](C)NC(=O)[C@@H](NC(=O)CN)C(C)C)[C@@H](C)CC)C(=O)N[C@@H](C)C(=O)NCC(=O)N[C@@H](Cc1cnc[nH]1)C(=O)N[C@@H](CC(C)C)C(=O)N[C@@H](C)C(=O)N[C@@H](CO)C(=O)N[C@@H](CCCCN)C(=O)N[C@H](C(=O)N[C@@H](CCSC)C(=O)N[C@@H](CC(N)=O)C(=O)N[C@@H](CCCCN)C(=O)N[C@@H](CC(C)C)C(N)=O)C(C)C [GVADILKGAAKDIAGHLASKVMNKL]
- MIC [10]: ≥ 100 µM
- MIC [11]: > 100 µM
- MIC [12]: > 100 µM
- MIC [13]: 100 µM (≈ 252 µg/mL)
- MIC [14]: ≥ 100 µM
- MIC [9]: > 100 µM

Compound: CC[C@H](C)[C@H](NC(=O)[C@H](CC(=O)O)NC(=O)[C@H](CCCCN)NC(=O)[C@H](C)NC(=O)[C@H](C)NC(=O)CNC(=O)[C@H](CCCCN)NC(=O)[C@H](CC(C)C)NC(=O)[C@@H](NC(=O)[C@H](CC(=O)O)NC(=O)[C@@H](NC(=O)[C@@H](NC(=O)CN)C(C)C)C(C)C)[C@@H](C)CC)C(=O)N[C@@H](C)C(=O)NCC(=O)N[C@@H](C)C(=O)N[C@@H](CC(C)C)C(=O)N[C@@H](C)C(=O)N[C@@H](CO)C(=O)N[C@@H](CCCCN)C(=O)N[C@H](C(=O)N[C@@H](CCSC)C(=O)N[C@@H](CC(N)=O)C(=O)N[C@@H](CCCCN)C(=O)N[C@@H](CC(C)C)C(N)=O)C(C)C [GVVDILKGAAKDIAGALASKVMNKL]
- MIC [10]: ≥ 100 µM
- MIC [11]: 100 µM (≈ 248 µg/mL)
- MIC [12]: > 100 µM
- MIC [13]: 100 µM (≈ 248 µg/mL)
- MIC [14]: ≥ 100 µM
- MIC [9]: > 100 µM

Compound: CC[C@H](C)[C@H](N)C(=O)N[C@@H](CCCCN)C(=O)N[C@@H](CCC(N)=O)C(=O)NCC(=O)N[C@@H](CC(C)C)C(=O)N1CCC[C@H]1C(=O)N[C@@H](CCC(N)=O)C(=O)N[C@@H](CCC(=O)O)C(=O)O [IKQGLPQE]
- MIC [15]: ≥ 2500 µM
- MIC [16]: ≥ 2500 µM
- MIC [17]: ≥ 2500 µM
- MIC [18]: ≥ 2500 µM
- MIC [19]: ≥ 2500 µM
- MIC [20]: ≥ 2500 µM
- MIC [21]: ≥ 2500 µM
- MIC [22]: ≥ 2500 µM
- MIC [23]: ≥ 2500 µM
- MIC [24]: ≥ 2500 µM
- MIC [25]: ≥ 2500 µM
- MIC [26]: ≥ 2500 µM
- MIC [27]: ≥ 2500 µM

Compound: CC(C)C[C@H](NC(=O)[C@H](CC(C)C)NC(=O)[C@H](CCCCN)NC(=O)[C@H](CCCCN)NC(=O)[C@H](Cc1c[nH]c2ccccc12)NC(=O)[C@H](Cc1c[nH]c2ccccc12)NC(=O)[C@H](CCCCN)NC(=O)[C@H](CC(C)C)NC(=O)[C@H](CC(C)C)NC(=O)[C@@H](N)CCCCN)C(N)=O [KLLKWWKKLL]
- MIC [28]: 12.5 µM (≈ 16.9 µg/mL)
- MIC [11]: 16 µM (≈ 21.7 µg/mL)
- MIC [29]: 8 µM (≈ 10.8 µg/mL)
- MIC [4]: 16 µM (≈ 21.7 µg/mL)
- MIC [9]: 8 µM (≈ 10.8 µg/mL)

The next lines start with the values.

- MIC [30]: ≥ 50 µM
- MIC [31]: ≥ 50 µM
- MIC [4]: > 50 µM
- MIC [32]: > 50 µM
Compound: CC(C)C[C@H](NC(=O)[C@@H](NC(=O)[C@@H](N)CCCCN)C(C)C)C(=O)N[C@@H](CCCCN)C(=O)N[C@@H](C)C(=O)N[C@@H](C)C(=O)N[C@@H](C)C(N)=O [KVLKAAA]

- MIC [15]: ≥ 2500 µM
- MIC [16]: ≥ 2500 µM
- MIC [17]: ≥ 1250 µM
- MIC [18]: ≥ 1250 µM
- MIC [19]: ≥ 312 µM
- MIC [20]: ≥ 2500 µM
- MIC [21]: ≥ 1250 µM
- MIC [22]: ≥ 2500 µM
- MIC [23]: ≥ 312 µM
- MIC [24]: ≥ 1250 µM
- MIC [25]: ≥ 2500 µM
- MIC [26]: ≥ 156 µM
- MIC [27]: ≥ 2500 µM
- MIC [9]: 64 µM (≈ 53.9 µg/mL)
Compound: CC(C)C[C@H](NC(=O)[C@H](CC(N)=O)NC(=O)[C@H](CCC(=O)O)NC(=O)[C@H](CC(N)=O)NC(=O)[C@H](CC(C)C)NC(=O)[C@@H](N)C(C)C)C(=O)N[C@@H](C)C(=O)N[C@@H](C)C(=O)O [VLNENLAA]

- MIC [33]: 10.2 µM (≈ 9.99 µg/mL)
- MIC [28]: 25 µM (≈ 24.5 µg/mL)
Compound: CC[C@H](C)[C@H](NC(=O)[C@H](CCCN=C(N)N)NC(=O)[C@H](CC(C)C)NC(=O)[C@H](CCCN=C(N)N)NC(=O)[C@@H](N)C(C)C)C(=O)N[C@@H](CCCN=C(N)N)C(=O)N[C@H](C(=O)N[C@@H](C)C(N)=O)C(C)C [VRLRIRVA]

From DBAASP
